Laboratory results from US9926506B2, “Tetrarylmethane ethers as fuel markers” (Dow Global Technologies LLC, priority 2014, dated 2018).

For CCCCCCCOc1ccc(C(c2ccccc2)(c2ccccc2)c2ccc(OCCCCCCC)cc2)cc1 [BHeptTPM, Bis(4-(heptyloxy)phenyl)diphenylmethane], the melting point was 103 to 105 °C.
In the case of CCCCCCOc1ccc(C(c2ccccc2)(c2ccccc2)c2ccc(OCCCCCC)cc2)cc1 [BHexTPM], the melting point is reported as 120 to 122 °C.
CCCCCCCCOc1ccc(C(c2ccccc2)(c2ccccc2)c2ccc(OCCCCCCCC)cc2)cc1 [BOctTPM, Bis(4-(octyloxy)phenyl)diphenylmethane] showed a melting point of 84.5 to 86.5 °C.
Compound CCCCCOc1ccc(C(c2ccccc2)(c2ccccc2)c2ccc(OCCCCC)cc2)cc1 [BPentTPM, Bis(4-(pentyloxy)phenyl)diphenylmethane] has a melting point of 110 to 113 °C.
